Source: PMC12155096 (International Journal of Molecular Sciences, 2025)
Structures can show the parent of a compound that is named as a salt.

What was measured:
[1] = molecular target: human CYP2C9 (Homo sapiens, UniProt P11712)
[2] = molecular target: CYP3A4 (Homo sapiens, UniProt P08684)
[3] = molecular target: human CYP2D6 (Homo sapiens, UniProt P10635)
[4] = molecular target: T1, human CYP1A2 (Homo sapiens, UniProt P05177)
T1 sequence (P05177 1-516): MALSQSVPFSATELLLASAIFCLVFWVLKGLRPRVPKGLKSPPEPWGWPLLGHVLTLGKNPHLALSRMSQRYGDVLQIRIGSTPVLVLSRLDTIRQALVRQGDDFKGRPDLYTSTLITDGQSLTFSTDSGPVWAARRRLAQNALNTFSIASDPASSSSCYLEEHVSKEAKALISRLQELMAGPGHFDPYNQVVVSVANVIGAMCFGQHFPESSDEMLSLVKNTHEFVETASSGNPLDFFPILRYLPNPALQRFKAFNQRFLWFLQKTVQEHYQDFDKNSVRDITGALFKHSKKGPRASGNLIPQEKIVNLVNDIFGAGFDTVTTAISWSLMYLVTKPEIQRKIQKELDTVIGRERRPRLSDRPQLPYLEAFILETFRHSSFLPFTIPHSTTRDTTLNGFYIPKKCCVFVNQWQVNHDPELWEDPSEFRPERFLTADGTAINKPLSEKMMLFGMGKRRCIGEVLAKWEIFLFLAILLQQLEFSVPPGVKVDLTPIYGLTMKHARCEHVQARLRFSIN

[5] = molecular target: human CYP2C19 (Homo sapiens, UniProt P33261)
Chain of human CYP2C19 (P33261 whole entry): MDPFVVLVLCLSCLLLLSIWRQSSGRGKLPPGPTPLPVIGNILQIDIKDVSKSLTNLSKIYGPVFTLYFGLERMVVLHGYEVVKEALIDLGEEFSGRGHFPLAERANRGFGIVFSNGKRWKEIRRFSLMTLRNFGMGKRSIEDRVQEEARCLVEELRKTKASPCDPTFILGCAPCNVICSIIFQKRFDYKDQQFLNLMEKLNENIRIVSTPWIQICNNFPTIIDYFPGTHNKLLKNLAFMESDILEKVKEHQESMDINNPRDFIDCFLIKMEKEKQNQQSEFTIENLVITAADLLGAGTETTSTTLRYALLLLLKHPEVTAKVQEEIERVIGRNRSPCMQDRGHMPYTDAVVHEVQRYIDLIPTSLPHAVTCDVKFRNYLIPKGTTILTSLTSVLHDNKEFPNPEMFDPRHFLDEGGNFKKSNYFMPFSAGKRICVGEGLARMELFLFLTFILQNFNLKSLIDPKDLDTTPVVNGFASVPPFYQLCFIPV

Chain of human CYP2D6 (P10635 whole entry): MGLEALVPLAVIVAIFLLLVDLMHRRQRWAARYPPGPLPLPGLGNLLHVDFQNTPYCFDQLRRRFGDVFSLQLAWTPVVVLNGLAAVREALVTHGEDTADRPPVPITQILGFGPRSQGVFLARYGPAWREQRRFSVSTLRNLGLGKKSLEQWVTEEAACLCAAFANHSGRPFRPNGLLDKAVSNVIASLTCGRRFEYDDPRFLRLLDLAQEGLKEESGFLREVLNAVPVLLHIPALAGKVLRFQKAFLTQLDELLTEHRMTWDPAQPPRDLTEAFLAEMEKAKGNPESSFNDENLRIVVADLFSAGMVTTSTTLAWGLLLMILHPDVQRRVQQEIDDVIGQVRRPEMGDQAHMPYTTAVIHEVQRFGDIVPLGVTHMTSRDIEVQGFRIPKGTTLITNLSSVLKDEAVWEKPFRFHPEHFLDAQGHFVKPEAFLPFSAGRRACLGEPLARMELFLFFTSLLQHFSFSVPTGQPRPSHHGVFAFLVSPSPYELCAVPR
Chain of human CYP2C9 (P11712 whole entry): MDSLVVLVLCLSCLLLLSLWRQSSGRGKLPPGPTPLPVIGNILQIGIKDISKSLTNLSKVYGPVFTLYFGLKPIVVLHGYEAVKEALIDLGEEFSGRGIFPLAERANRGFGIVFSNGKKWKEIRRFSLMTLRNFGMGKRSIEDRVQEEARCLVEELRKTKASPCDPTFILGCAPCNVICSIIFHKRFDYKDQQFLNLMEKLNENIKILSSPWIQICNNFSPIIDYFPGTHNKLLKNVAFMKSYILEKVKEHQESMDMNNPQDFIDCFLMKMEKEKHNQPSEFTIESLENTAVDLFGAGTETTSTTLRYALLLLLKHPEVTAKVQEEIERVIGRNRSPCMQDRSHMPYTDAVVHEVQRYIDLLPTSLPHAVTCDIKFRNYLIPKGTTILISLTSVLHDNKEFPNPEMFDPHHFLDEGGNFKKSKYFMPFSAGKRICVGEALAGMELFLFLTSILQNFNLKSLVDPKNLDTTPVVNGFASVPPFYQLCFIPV
Chain of CYP3A4 (P08684 whole entry): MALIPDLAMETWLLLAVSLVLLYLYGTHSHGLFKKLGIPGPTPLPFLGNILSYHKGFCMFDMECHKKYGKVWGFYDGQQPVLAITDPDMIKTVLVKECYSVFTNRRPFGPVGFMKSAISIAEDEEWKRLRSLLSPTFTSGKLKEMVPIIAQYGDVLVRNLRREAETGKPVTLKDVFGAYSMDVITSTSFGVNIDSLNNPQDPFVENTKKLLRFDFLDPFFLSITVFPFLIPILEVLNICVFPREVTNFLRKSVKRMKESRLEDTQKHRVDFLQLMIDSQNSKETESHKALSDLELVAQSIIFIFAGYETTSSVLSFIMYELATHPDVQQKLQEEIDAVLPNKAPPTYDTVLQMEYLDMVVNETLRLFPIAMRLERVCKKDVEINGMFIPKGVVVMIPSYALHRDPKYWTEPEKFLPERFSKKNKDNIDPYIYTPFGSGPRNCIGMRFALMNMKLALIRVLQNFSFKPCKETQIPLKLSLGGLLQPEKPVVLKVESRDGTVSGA

O=C(Cl)c1cc(Cl)cc(Cl)c1 [3,5-Dichlorobenzoyl chloride]
CYP2C9 AC50 (half-maximal activity concentration) [1]: Inconclusive inhibitor
AC50 [2]: 50.2 µM
CYP2D6 AC50 (half-maximal activity concentration) [3]: Inactive
CYP1A2 AC50 (half-maximal activity concentration) [4]: Inactive
CYP2C19 AC50 (half-maximal activity concentration) [5]: Inconclusive inhibitor

OCC(CBr)(CBr)CBr [3-Bromo-2,2-bis(bromomethyl)propanol]
AC50 [1]: 40.5 µM
CYP3A4 AC50 (half-maximal activity concentration) [2]: Inactive
CYP2D6 AC50 (half-maximal activity concentration) [3]: Inactive
CYP1A2 AC50 (half-maximal activity concentration) [4]: Inactive
AC50 [5]: 38.3 µM

O=C(Cl)c1ccc(F)c(Cl)c1 [3-Chloro-4-fluorobenzoyl chloride]
CYP2C9 AC50 (half-maximal activity concentration) [1]: Inactive
AC50 [2]: 55.5 µM
CYP2D6 AC50 (half-maximal activity concentration) [3]: Inconclusive inhibitor
CYP1A2 AC50 (half-maximal activity concentration) [4]: Inactive
CYP2C19 AC50 (half-maximal activity concentration) [5]: Inconclusive inhibitor

O=C(c1ccccc1)c1cccc(O)c1 [3-Hydroxybenzophenone]
AC50 [1]: 3.99 µM
CYP3A4 AC50 (half-maximal activity concentration) [2]: Inactive
AC50 [3]: 54.1 µM
AC50 [4]: 36.2 µM
AC50 [5]: 23.9 µM

OCc1cccc(Oc2ccccc2)c1 [3-Phenoxybenzenemethanol]
AC50 [1]: 55.8 µM
AC50 [2]: 64.4 µM
CYP2D6 AC50 (half-maximal activity concentration) [3]: Inconclusive inhibitor
AC50 [4]: 38.5 µM
AC50 [5]: 24.7 µM

O=C(C=Cc1ccccc1)OCCCc1ccccc1 [3-Phenylpropyl cinnamate]
AC50 [1]: 19.4 µM
AC50 [2]: 25.2 µM
CYP2D6 AC50 (half-maximal activity concentration) [3]: Inactive
AC50 [4]: 12.2 µM
AC50 [5]: 30.1 µM

CCCCCCCCCCCSCC(=O)O [3-Thiatetradecanoic acid]
AC50 [1]: 45.2 µM
AC50 [2]: 87.3 µM
AC50 [3]: 20.6 µM
CYP1A2 AC50 (half-maximal activity concentration) [4]: Inconclusive inhibitor
CYP2C19 AC50 (half-maximal activity concentration) [5]: Inconclusive inhibitor

Nc1ccc([N+](=O)[O-])c(C(F)(F)F)c1 [3-Trifluoromethyl-4-nitroanilide]
AC50 [1]: 39.1 µM
CYP3A4 AC50 (half-maximal activity concentration) [2]: Inactive
CYP2D6 AC50 (half-maximal activity concentration) [3]: Inactive
AC50 [4]: 8.83 µM
AC50 [5]: 12.9 µM

CC(C)(C)c1ccc(C(=O)CCCCl)cc1 [4'-Tert-butyl-4-chlorobutyrophenone]
CYP2C9 AC50 (half-maximal activity concentration) [1]: Inactive
AC50 [2]: 21.9 µM
CYP2D6 AC50 (half-maximal activity concentration) [3]: Inactive
AC50 [4]: 12 µM
CYP2C19 AC50 (half-maximal activity concentration) [5]: Inactive

O=C(Nc1ccc([N+](=O)[O-])cc1)Nc1ccc([N+](=O)[O-])cc1 [4,4'-Dinitrodiphenylurea]
CYP2C9 AC50 (half-maximal activity concentration) [1]: Inactive
AC50 [2]: 11 µM
CYP2D6 AC50 (half-maximal activity concentration) [3]: Inactive
CYP1A2 AC50 (half-maximal activity concentration) [4]: Inactive
CYP2C19 AC50 (half-maximal activity concentration) [5]: Inactive

CCC(C)(C)C1CCC(O)CC1 (stereo not drawn) [4-(2-Methylbutan-2-yl)cyclohexanol]
CYP2C9 AC50 (half-maximal activity concentration) [1]: Inactive
AC50 [2]: 9.66 µM
CYP2D6 AC50 (half-maximal activity concentration) [3]: Inactive
CYP1A2 AC50 (half-maximal activity concentration) [4]: Inconclusive inhibitor
CYP2C19 AC50 (half-maximal activity concentration) [5]: Inactive

CCN(CC)c1ccc(C=O)c(O)c1 [4-(Diethylamino)salicylaldehyde]
AC50 [1]: 22.8 µM
CYP3A4 AC50 (half-maximal activity concentration) [2]: Inactive
CYP2D6 AC50 (half-maximal activity concentration) [3]: Inactive
AC50 [4]: 16.4 µM
AC50 [5]: 50.6 µM

CC(C)CC(O)Cc1ccccc1 (stereo not drawn) [4-Methyl-1-phenyl-2-pentanol]
CYP2C9 AC50 (half-maximal activity concentration) [1]: Inconclusive inhibitor
AC50 [2]: 34.3 µM
CYP2D6 AC50 (half-maximal activity concentration) [3]: Inactive
AC50 [4]: 37 µM
AC50 [5]: 37 µM

O=C1OC(=O)c2cc(Oc3ccc4c(c3)C(=O)OC4=O)ccc21 [5,5'-Oxybis(2-benzofuran-1,3-dione)]
CYP2C9 AC50 (half-maximal activity concentration) [1]: Inactive
AC50 [2]: 30.8 µM
CYP2D6 AC50 (half-maximal activity concentration) [3]: Inactive
CYP1A2 AC50 (half-maximal activity concentration) [4]: Inactive
CYP2C19 AC50 (half-maximal activity concentration) [5]: Inconclusive inhibitor

CCc1cnc(C(=O)O)c(C(=O)O)c1 [5-Ethyl-2,3-pyridinedicarboxylic acid]
CYP2C9 AC50 (half-maximal activity concentration) [1]: Inactive
AC50 [2]: 20.6 µM
CYP2D6 AC50 (half-maximal activity concentration) [3]: Inconclusive inhibitor
CYP1A2 AC50 (half-maximal activity concentration) [4]: Inactive
CYP2C19 AC50 (half-maximal activity concentration) [5]: Inactive

Cc1ccc([N+](=O)[O-])c(N)c1 [5-Methyl-2-nitroaniline]
AC50 [1]: 49.9 µM
AC50 [2]: 13.9 µM
CYP2D6 AC50 (half-maximal activity concentration) [3]: Inactive
AC50 [4]: 19.2 µM
AC50 [5]: 39.6 µM

O=C(O)c1cc(C(=O)O)cc([N+](=O)[O-])c1 [5-Nitroisophthalic acid]
CYP2C9 AC50 (half-maximal activity concentration) [1]: Inactive
AC50 [2]: 5.59 µM
CYP2D6 AC50 (half-maximal activity concentration) [3]: Inactive
CYP1A2 AC50 (half-maximal activity concentration) [4]: Inconclusive inhibitor
CYP2C19 AC50 (half-maximal activity concentration) [5]: Inconclusive activator

CC(C)c1ccc2ncccc2c1 [6-(1-Methylethyl)quinoline]
CYP2C9 AC50 (half-maximal activity concentration) [1]: Inactive
AC50 [2]: 35 µM
CYP2D6 AC50 (half-maximal activity concentration) [3]: Inactive
AC50 [4]: 46.2 µM
CYP2C19 AC50 (half-maximal activity concentration) [5]: Inactive

CCN(CC)c1ccc2c(C)cc(=O)oc2c1 [7-Diethylamino-4-methylcoumarin]
AC50 [1]: 4.6 µM
AC50 [2]: 32.4 µM
AC50 [3]: 58.5 µM
AC50 [4]: 1.9 µM
AC50 [5]: 36 µM

N#CCc1ccc(Cl)cc1Cl [(2,4-Dichlorophenyl)acetonitrile]
CYP2C9 AC50 (half-maximal activity concentration) [1]: Inactive
AC50 [2]: 13.3 µM
CYP2D6 AC50 (half-maximal activity concentration) [3]: Inactive
AC50 [4]: 23.4 µM
AC50 [5]: 50.4 µM

CCCCCC[C@@H](CCC)C(=O)O [(2R)-2-Propyloctanoic acid]
AC50 [1]: 34.7 µM
AC50 [2]: 31 µM
CYP2D6 AC50 (half-maximal activity concentration) [3]: Inactive
CYP1A2 AC50 (half-maximal activity concentration) [4]: Inactive
CYP2C19 AC50 (half-maximal activity concentration) [5]: Inconclusive activator

CCOC(=O)CC(CC(=O)OCC)(OC(C)=O)C(=O)OCC [Acetyltriethyl citrate]
AC50 [1]: 30.6 µM
AC50 [2]: 43.5 µM
CYP2D6 AC50 (half-maximal activity concentration) [3]: Inactive
CYP1A2 AC50 (half-maximal activity concentration) [4]: Inconclusive inhibitor
AC50 [5]: 18.1 µM

CCCCCCCCCCCCCCCCC(C(=O)O)C(O)(CC(=O)O)C(=O)O (stereo not drawn) [Agaric acid]
CYP2C9 AC50 (half-maximal activity concentration) [1]: Inactive
AC50 [2]: 32.4 µM
CYP2D6 AC50 (half-maximal activity concentration) [3]: Inconclusive inhibitor
CYP1A2 AC50 (half-maximal activity concentration) [4]: Inactive
CYP2C19 AC50 (half-maximal activity concentration) [5]: Inconclusive activator

CC1(C)[C@@H](O[C@H]2O[C@H](C(=O)O)[C@@H](O)[C@H](O)[C@H]2O[C@@H]2O[C@H](C(=O)O)[C@@H](O)[C@H](O)[C@H]2O)CC[C@]2(C)[C@H]3C(=O)C=C4[C@@H]5C[C@@](C)(C(=O)O)CC[C@]5(C)CC[C@@]4(C)[C@]3(C)CC[C@@H]12.N.O.O.O [Ammonium glycyrrhizinate trihydrate]
CYP2C9 AC50 (half-maximal activity concentration) [1]: Inactive
AC50 [2]: 23.5 µM
CYP2D6 AC50 (half-maximal activity concentration) [3]: Inactive
CYP1A2 AC50 (half-maximal activity concentration) [4]: Inconclusive inhibitor
CYP2C19 AC50 (half-maximal activity concentration) [5]: Inconclusive inhibitor
